This is an account of results in patent US7317028B2, “Cell differentiation inducer” (Schering Aktiengesellschaft, priority 1996, dated 2008).

The subject of data set [1] is Murine myeloid leukemia cells WEHI-3. The experiment in a line: Antitumor test, life prolongation in mice inoculated with WEHI-3 cells (T/C). The format is in vivo, Balb/C mouse. Conditions: Dose 130 μmol/kg, oral once a day Day 1 to 4 and Day 7 to 11; ratio of survival days to control. The source says: Murine myeloid leukemia cells WEHI-3 (1 to 3×10^6 cells) were intraperitoneally inoculated to a Balb/C mouse, and administration of a test compound was initiated on the next day. The day was Day 1 and subsequently the drug was orally administered once a day in Day 1 to 4 and in Day 7 to 11. Survival days after inoculation were observed, which were used to calculate the ratio of the survival days for the test coompound group to those for the control group (T/C, %). The ratio was used to evaluate a life prolongation effect.

Data set [2] has as its system A2780 cells. The experiment in a line: Test for induction of differentiation in A2780 cells (ALP activity, ALPmin). To be noted: for minimal effective concentration: Homo sapiens, 72 h, A2780 cells, 3 days incubation, minimum concentration of the drug inducing increase of ALP activity. The format is cell-based, human. The method, boiled down:
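A2780 cells seeded at 15,000/well, test compound added in serial dilution the next day. ALP reaction stopped with 3N NaOH and absorbance read at 405 nm; ALPmin is the lowest concentration raising ALP activity.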

As usually defined, the T/C is the ratio of treated to control. What is called minimal effective concentration is the lowest level tested that produced the effect sought. Low readings indicate greater potency, high ones weaker potency. Turning to `Nc1ccccc1NC(=O)c1ccc(CNC(=O)OCc2cccnc2)cc1` [Example 48, N-(2-aminophenyl)-4-[N-(pyridin-3-yl)methoxycarbonylaminomethyl]benzamide], the T/C in data set [1] was 190%. Also, in data set [2], the differentiation-inducing activity result is listed as “high” and the minimal effective concentration was found to be 0.1 µM.

In the case of `Nc1ccccc1NC(=O)c1ccc(NC(=O)COCc2cccnc2)cc1` [Example 130, N-(2-aminophenyl)-4-[(pyridin-3-yl)methoxyacetylamino]benzamide], the T/C in data set [1] worked out at 189%. Moreover, the minimal effective concentration in data set [2] was 0.03 µM.

One may read the melting point as the temperature, or range, at which the solid turns liquid. On to `Nc1ccccc1NC(=O)c1ccc(NC(=O)CCC(=O)c2cccnc2)cc1` [Example 121, N-(2-aminophenyl)-4-[4-(pyridin-3-yl)-1,4-dioxobutylamino]benzamide], for which the melting point lay in the range of 190 to 194 °C. Further, the minimal effective concentration in data set [2] came to 3 µM.

In turn, `Nc1ccccc1NC(=O)c1ccc(CNC(=O)OCCc2ccccn2)cc1` [Example 52, N-(2-aminophenyl)-4-[N-[2-(pyridin-2-yl)ethoxycarbonyl]aminomethyl]benzamide] yielded a melting point of 146 to 148 °C. Also, the minimal effective concentration in data set [2] stood at 1 µM.

The molecule `CC(OCc1cccnc1)C(=O)Nc1ccc(C(=O)Nc2ccccc2N)cc1` (centres unmarked) [Example 131, N-(2-aminophenyl)-4-[N-[2-(pyridin-3-yl)methoxypropionyl]amino]benzamide] showed a melting point of 144 to 148 °C. Also, the minimal effective concentration in data set [2] is 0.3 µM.

Turning to `CN(C)c1ccc(C(=O)NCc2ccc(C(=O)Nc3ccccc3N)cc2)cc1` [Example 8, N-(2-aminophenyl)-4-[N-[4-(N,N-dimethyl)aminobenzoyl]aminomethyl]benzamide], the melting point is 216 to 219 °C (dec.). The molecule further yielded a minimal effective concentration in data set [2] of 1 µM.

For `Nc1ccccc1NC(=O)c1ccc(CNC(=O)CCc2cccnc2)cc1` [Example 30, N-(2-aminophenyl)-4-[N-[3-(pyridin-3-yl)propionyl]aminomethyl]benzamide], the melting point was 183 to 186 °C. Also, in data set [2], the minimal effective concentration worked out at 0.1 µM.

With `COc1ccc(O)c(NC(=O)c2ccc(CNC(=O)OCc3cccnc3)cc2)c1` [Example 85, N-(2-hydroxy-5-methoxyphenyl)-4-[N-(pyridin-3-yl)methoxycarbonylaminomethyl]benzamide], the melting point lay within 175 to 176 °C. This molecule gave a minimal effective concentration in data set [2] of 3 µM.

On to `Nc1ccccc1NC(=O)c1ccc(CNC(=O)c2ccc[nH]2)cc1` [Example 23, N-(2-aminophenyl)-4-[N-(pyrrol-2-yl)carbonylaminomethyl]benzamide], for which the melting point was 216 to 220 °C (dec.). The molecule further gave a minimal effective concentration in data set [2] of 1 µM.

As for `Nc1ccccc1NC(=O)c1ccc(NC(=O)CNC(=O)c2cccnc2)cc1` [Example 127, N-(2-aminophenyl)-4-[N-(N-nicotinoylamino)acetylamino]benzamide], the melting point was 218 to 220 °C (dec.). The minimal effective concentration in data set [2] came to 0.3 µM.

`Nc1ccccc1NC(=O)c1ccc(COC(=O)NCc2cccnc2)cc1` [Example 98, N-(2-aminophenyl)-4-[(pyridin-3-yl)methylaminocarbonyloxymethyl]benzamide] displayed a melting point of 139 to 141 °C. In data set [2], this molecule showed a minimal effective concentration of 0.1 µM.

Molecule `COc1ccc(C(=O)NCc2ccc(C(=O)Nc3ccccc3N)cc2)cc1` [Example 6, N-(2-aminophenyl)-4-[N-(4-methoxybenzoyl)aminomethyl]benzamide] gave a melting point of 149 to 151 °C. The molecule further came in with a minimal effective concentration in data set [2] of 1 µM.

`Nc1ccccc1NC(=O)c1ccc(CNC(=O)OCc2ccccn2)cc1` [Example 51, N-(2-aminophenyl)-4-[N-(pyridin-2-yl)methoxycarbonylaminomethyl]benzamide]: the melting point lay within 166 to 167 °C. In data set [2], this molecule gave a minimal effective concentration of 1 µM.

For the molecule `Cl.Nc1ccccc1NC(=O)c1ccc(-n2cc(COCc3ccccc3)oc2=O)cc1` [Example 138, N-(2-aminophenyl)-4-(5-benzyloxymethyl-1,3-oxazolin-2-on-3-yl)benzamide hydrochloride], the melting point lay within 181 to 183 °C. In addition, the minimal effective concentration in data set [2] turned out to be 1 µM.

Turning to `Nc1ccccc1CC(=O)Nc1ccc(C(=O)Nc2ccccc2N)cc1` [Example 105, N-(2-aminophenyl)-4-[(2-aminophenylacetyl)amino]benzamide], the melting point is 177 to 182 °C (dec.). This molecule displayed a minimal effective concentration in data set [2] of 1 µM.

Regarding `Nc1ccccc1NC(=O)c1ccc(NC(=O)Cc2ccccc2)cc1` [Example 100, N-(2-aminophenyl)-4-(phenylacetylamino)benzamide], the melting point lay within 232 to 237 °C. This molecule showed a minimal effective concentration in data set [2] of 1 µM.

In turn, `Nc1ccccc1NC(=O)c1ccc(NC(=O)Cc2ccc([N+](=O)[O-])cc2)cc1` [Example 104, N-(2-aminophenyl)-4-[(4-nitrophenylacetyl)amino]benzamide] registered a melting point of 222 to 226 °C. In addition, the minimal effective concentration in data set [2] came out at 1 µM.

As to `Nc1ccccc1NC(=O)c1ccc(C(=O)NCc2ccccc2)cc1` [Example 132, N-(2-aminophenyl)-4-(N-benzylamino)carbonylbenzamide], the melting point was 239 to 241 °C (dec.). The molecule also had a minimal effective concentration in data set [2] of 10 µM.

Regarding `Nc1ccccc1NC(=O)c1ccc(CNC(=O)Cc2cccnc2)cc1` [Example 29, N-(2-aminophenyl)-4-[N-(pyridin-3-yl)acetylaminomethyl]benzamide], the melting point was determined as 127 °C. The minimal effective concentration in data set [2] worked out at 10 µM.

`Nc1ccccc1NC(=O)c1ccc(CNC(=O)COc2cncc(Cl)c2)cc1` [Example 32, N-(2-aminophenyl)-4-[N-(5-chloropyridin-3-yl)oxyacetylaminomethyl]benzamide] came in with a melting point of 199 to 201 °C. The molecule also came in with a minimal effective concentration in data set [2] of 3 µM.

`Cl.Nc1ccccc1NC(=O)c1ccc(CNC(=O)c2ccccc2)cc1` [Example 1, N-(2-aminophenyl)-4-(N-benzoylaminomethyl)benzamide hydrochloride]: the melting point lay in the range of 206 to 209 °C. The minimal effective concentration in data set [2] worked out at 1 µM.

In turn, `CC(Oc1cccnc1)C(=O)Nc1ccc(C(=O)Nc2ccccc2N)cc1` (centres unmarked) [Example 129, N-(2-aminophenyl)-4-[N-[2-(pyridin-3-yl)oxypropionyl]amino]benzamide] gave a melting point of 193 to 196 °C. For the same molecule, in data set [2], the minimal effective concentration amounted to 1 µM.

In turn, `Nc1ccccc1NC(=O)c1ccc(CCC(=O)NCc2cccnc2)cc1` [Example 97, N-(2-aminophenyl)-4-[2-[N-(3-picolyl)aminocarbonyl]ethyl]benzamide] returned a melting point of 168 to 170 °C. Besides, the minimal effective concentration in data set [2] was 0.1 µM.

As to `Cc1ccc(C(=O)NCc2ccc(C(=O)Nc3ccccc3N)cc2)cn1` [Example 16, N-(2-aminophenyl)-4-[N-(6-methylnicotinoyl)aminomethyl]benzamide], the melting point is 186 to 190 °C (dec.). The minimal effective concentration in data set [2] stood at 3 µM.

Turning to `Cc1cc(C(=O)Nc2ccccc2N)ccc1NC(=O)COCc1cccnc1` [Example 123, N-(2-aminophenyl)-4-[N-(pyridin-3-yl)methoxyacetylamino]-3-methylbenzamide], the melting point was 178 to 181 °C (dec.). For the same molecule, the minimal effective concentration in data set [2] was 3 µM.

Molecule `Nc1ccccc1NC(=O)c1ccc(CNC(=O)CC(=O)c2cccnc2)cc1` [Example 34, N-(2-aminophenyl)-4-[N-[3-(pyridin-3-yl)-1,3-dioxopropyl]aminomethyl]benzamide] came in with a melting point of 204 to 206 °C. In addition, the minimal effective concentration in data set [2] is 0.1 µM.

As for `Nc1ccccc1NC(=O)c1ccc(NC(=O)COc2ccc([N+](=O)[O-])cc2)cc1` [Example 134, N-(2-aminophenyl)-4-[N-(4-nitrophenoxyacetyl)amino]benzamide], the melting point was 212 to 215 °C (dec.). In data set [2], this molecule gave a minimal effective concentration of 3 µM.

`Nc1ccccc1NC(=O)c1ccc(CNC(=O)OCc2ccc(-n3ccnc3)cc2)cc1` [Example 50, N-(2-aminophenyl)-4-[N-(4-(imidazol-1-yl)benzyl)oxycarbonylaminomethyl]benzamide] displayed a melting point of 195 to 198 °C. The molecule further came in with a minimal effective concentration in data set [2] of 1 µM.

In the case of `Cc1cc(C(=O)NCc2ccc(C(=O)Nc3ccccc3N)cc2)sn1` [Example 26, N-(2-aminophenyl)-4-[N-(3-methylisothiazol-5-yl)carbonylaminomethyl]benzamide], the melting point lay in the range of 168 to 169 °C. Moreover, the minimal effective concentration in data set [2] is 1 µM.

In the case of `Nc1ccccc1NC(=O)c1ccc(CNC(=O)c2cccnc2Cl)cc1` [Example 17, N-(2-aminophenyl)-4-[N-(2-chloronicotinoyl)aminomethyl]benzamide], the melting point is 176 to 178 °C (dec.). The same molecule returned a minimal effective concentration in data set [2] of 3 µM.

Molecule `Nc1cccc(CC(=O)NCc2ccc(C(=O)Nc3ccccc3N)cc2)c1` [Example 28, N-(2-aminophenyl)-4-[N-(3-aminophenyl)acetylaminomethyl]benzamide] yielded a melting point of 171 to 176 °C. This molecule also yielded a minimal effective concentration in data set [2] of 10 µM.

As for `Nc1ccccc1NC(=O)c1ccc(-n2cc(COCc3cccnc3)oc2=O)cc1` [Example 140, N-(2-aminophenyl)-4-[5-(pyridin-3-yl)methyloxymethyl-1,3-oxazolin-2-on-3-yl]benzamide], the melting point was 160 to 164 °C (dec.). The minimal effective concentration in data set [2] came out at 0.3 µM.
